{"source": "patent US6737383B1", "about": "“Herbicidal oxadiazolidines” (priority 1999, dated 2004)", "key": {"bedstraw": {"test_system": "bedstraw", "assay": "Test B pre/postemergence bedstraw", "assay_type": "in vivo, Galium aparine", "conditions": "Preemergence; for Bedstraw plant response rating: Rate 62 g/ha", "outline": "(§1)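 Response is a visual 0-to-10 score relative to untreated plants, where 0 means no effect and 10 means complete control, taken twelve to sixteen days after application. Treatments went onto soil at planting and onto foliage of 1- to 4-leaf plants, using a surfactant-containing non-phytotoxic solvent.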"}, "blackgrass": {"test_system": "blackgrass", "assay": "Test B pre/postemergence blackgrass", "assay_type": "in vivo, Alopecurus myosuroides", "conditions": "Preemergence; for Blackgrass plant response rating: Rate 62 g/ha", "outline": "as §1"}, "surinam grass": {"test_system": "surinam grass", "assay": "Test B pre/postemergence surinam grass", "assay_type": "in vivo, Brachiaria decumbens", "conditions": "Preemergence; for B. signalgrass plant response rating: Rate 62 g/ha", "outline": "as §1"}, "cocklebur": {"test_system": "cocklebur", "assay": "Test B pre/postemergence cocklebur", "assay_type": "in vivo, Xanthium strumarium", "conditions": "Preemergence; for Cocklebur plant response rating: Rate 62 g/ha", "outline": "as §1"}, "corn": {"test_system": "corn", "assay": "Test B pre/postemergence corn", "assay_type": "in vivo, Zea mays", "conditions": "Preemergence; for Corn plant response rating: Rate 62 g/ha", "outline": "as §1"}, "crabgrass": {"test_system": "crabgrass", "assay": "Test B pre/postemergence crabgrass", "assay_type": "in vivo, Digitaria sanguinalis", "conditions": "Preemergence; for Crabgrass plant response rating: Rate 62 g/ha", "outline": "as §1"}, "giant foxtail": {"test_system": "giant foxtail", "assay": "Test B pre/postemergence giant foxtail", "assay_type": "in vivo, Setaria faberii", "conditions": "Preemergence, scale of 0 to 10 where 0 is no effect and 10 is complete control; for Giant foxtail plant response rating: Rate 62 g/ha; for Plant response rating, Giant foxtail: Rate 125 g/ha", "outline": "as §1"}, "morningglory": {"test_system": "morningglory", "assay": "Test B pre/postemergence morningglory", "assay_type": "in vivo, Ipomoea hederacea", "conditions": "Preemergence, scale of 0 to 10 where 0 is no effect and 10 is complete control; for Morningglory plant response rating: Rate 62 g/ha; for Plant response rating, Morningglory: Rate 125 g/ha", "outline": "as §1"}, "pigweed": {"test_system": "pigweed", "assay": "Test B pre/postemergence pigweed", "assay_type": "in vivo, Amaranthus retroflexus", "conditions": "Preemergence, scale of 0 to 10 where 0 is no effect and 10 is complete control; for Redroot pigweed plant response rating: Rate 62 g/ha; for Plant response rating, Redroot pigweed: Rate 125 g/ha", "outline": "as §1"}, "rape": {"test_system": "rape", "assay": "Test B pre/postemergence rape", "assay_type": "in vivo, Brassica napus", "conditions": "Preemergence, scale of 0 to 10 where 0 is no effect and 10 is complete control; for Rape plant response rating: Rate 62 g/ha; for Plant response rating, Rape: Rate 125 g/ha", "outline": "as §1"}, "soybean": {"test_system": "soybean", "assay": "Test B pre/postemergence soybean", "assay_type": "in vivo, Glycine max", "conditions": "Preemergence, scale of 0 to 10 where 0 is no effect and 10 is complete control; for Soybean plant response rating: Rate 62 g/ha; for Plant response rating, Soybean: Rate 125 g/ha", "outline": "as §1"}, "sugar beet": {"test_system": "sugar beet", "assay": "Test B pre/postemergence sugar beet", "assay_type": "in vivo, Beta vulgaris", "conditions": "Preemergence, scale of 0 to 10 where 0 is no effect and 10 is complete control; for Sugarbeets plant response rating: Rate 62 g/ha; for Plant response rating, Sugarbeets: Rate 125 g/ha", "outline": "as §1"}, "velvetleaf": {"test_system": "velvetleaf", "assay": "Test B pre/postemergence velvetleaf", "assay_type": "in vivo, Abutilon theophrasti", "conditions": "Preemergence, scale of 0 to 10 where 0 is no effect and 10 is complete control; for Velvetleaf plant response rating: Rate 62 g/ha; for Plant response rating, Velvetleaf: Rate 125 g/ha", "outline": "as §1"}, "wheat": {"test_system": "wheat", "assay": "Test B pre/postemergence wheat", "assay_type": "in vivo, Triticum aestivum", "conditions": "Preemergence, scale of 0 to 10 where 0 is no effect and 10 is complete control; for Wheat plant response rating: Rate 62 g/ha; for Plant response rating, Wheat: Rate 125 g/ha", "outline": "as §1"}, "wild oat": {"test_system": "wild oat", "assay": "Test B pre/postemergence wild oat", "assay_type": "in vivo, Avena fatua", "conditions": "Preemergence, scale of 0 to 10 where 0 is no effect and 10 is complete control; for Wild oats plant response rating: Rate 62 g/ha; for Plant response rating, Wild oats: Rate 125 g/ha", "outline": "as §1"}, "purple nutsedge": {"test_system": "purple nutsedge", "assay": "Test B pre/postemergence purple nutsedge", "assay_type": "in vivo, Cyperus rotundus", "conditions": "Preemergence, scale of 0 to 10 where 0 is no effect and 10 is complete control; for Nutsedge plant response rating: Rate 62 g/ha; for Plant response rating, Nutsedge: Rate 125 g/ha", "outline": "as §1"}, "[1]": {"conditions": "scale of 0 to 10 where 0 is no effect and 10 is complete control"}, "[2]": {"conditions": "Rate 125 g/ha, scale of 0 to 10 where 0 is no effect and 10 is complete control"}, "[3]": {"conditions": "Rate 250 g/ha, scale 0 to 10 (0 no effect, 10 complete control)"}, "[4]": {"conditions": "Rate 500 g/ha, scale of 0 to 10 where 0 is no effect and 10 is complete control"}}}
{"smiles": "CC(C)N(C(=O)n1oc(=O)n(C(C)C(=O)N2CCOCC2)c1=O)c1ccc(Cl)cc1", "note": "(stereo not drawn) [Compound 703]", "values": [{"measurement": "Bedstraw plant response rating", "setting": "bedstraw; [1]", "value": 0}, {"measurement": "Plant response rating, Bedstraw", "setting": "bedstraw; [2]", "value": 0}, {"measurement": "Plant response rating, Bedstraw", "setting": "bedstraw; [3]", "value": 0}, {"measurement": "Plant response rating, Bedstraw", "setting": "bedstraw; [4]", "value": 0}, {"measurement": "Blackgrass plant response rating", "setting": "blackgrass; [1]", "value": 0}, {"measurement": "Plant response rating, Blackgrass", "setting": "blackgrass; [2]", "value": 3}, {"measurement": "Plant response rating, Blackgrass", "setting": "blackgrass; [3]", "value": 6}, {"measurement": "Plant response rating, Blackgrass", "setting": "blackgrass; [4]", "value": 8}, {"measurement": "B. signalgrass plant response rating", "setting": "surinam grass; [1]", "value": 2}, {"measurement": "Plant response rating, B. signalgrass", "setting": "surinam grass; [2]", "value": 3}, {"measurement": "Plant response rating, B. signalgrass", "setting": "surinam grass; [3]", "value": 3}, {"measurement": "Plant response rating, B. signalgrass", "setting": "surinam grass; [4]", "value": 8}, {"measurement": "Cocklebur plant response rating", "setting": "cocklebur; [1]", "value": 0}, {"measurement": "Plant response rating, Cocklebur", "setting": "cocklebur; [2]", "value": 0}, {"measurement": "Plant response rating, Cocklebur", "setting": "cocklebur; [3]", "value": 0}, {"measurement": "Plant response rating, Cocklebur", "setting": "cocklebur; [4]", "value": 0}, {"measurement": "Corn plant response rating", "setting": "corn; [1]", "value": 0}, {"measurement": "Plant response rating, Corn", "setting": "corn; [2]", "value": 0}, {"measurement": "Plant response rating, Corn", "setting": "corn; [3]", "value": 0}, {"measurement": "Crabgrass plant response rating", "setting": "crabgrass; [1]", "value": 5}, {"measurement": "Plant response rating, Crabgrass", "setting": "crabgrass; [2]", "value": 8}, {"measurement": "Plant response rating, Crabgrass", "setting": "crabgrass; [3]", "value": 9}, {"measurement": "Giant foxtail plant response rating", "setting": "giant foxtail", "value": 5}, {"measurement": "Plant response rating, Giant foxtail", "setting": "giant foxtail", "value": 7}, {"measurement": "Morningglory plant response rating", "setting": "morningglory", "value": 0}, {"measurement": "Plant response rating, Morningglory", "setting": "morningglory", "value": 0}, {"measurement": "Redroot pigweed plant response rating", "setting": "pigweed", "value": 0}, {"measurement": "Plant response rating, Redroot pigweed", "setting": "pigweed", "value": 4}, {"measurement": "Rape plant response rating", "setting": "rape", "value": 0}, {"measurement": "Plant response rating, Rape", "setting": "rape", "value": 0}, {"measurement": "Soybean plant response rating", "setting": "soybean", "value": 0}, {"measurement": "Plant response rating, Soybean", "setting": "soybean", "value": 0}, {"measurement": "Sugarbeets plant response rating", "setting": "sugar beet", "value": 0}, {"measurement": "Plant response rating, Sugarbeets", "setting": "sugar beet", "value": 0}, {"measurement": "Velvetleaf plant response rating", "setting": "velvetleaf", "value": 0}, {"measurement": "Plant response rating, Velvetleaf", "setting": "velvetleaf", "value": 0}, {"measurement": "Wheat plant response rating", "setting": "wheat", "value": 0}, {"measurement": "Plant response rating, Wheat", "setting": "wheat", "value": 0}, {"measurement": "Wild oats plant response rating", "setting": "wild oat", "value": 0}, {"measurement": "Plant response rating, Wild oats", "setting": "wild oat", "value": 0}, {"measurement": "Nutsedge plant response rating", "setting": "purple nutsedge", "value": 0}, {"measurement": "Plant response rating, Nutsedge", "setting": "purple nutsedge", "value": 0}]}
{"smiles": "CCn1ncc(Cn2c(=O)on(C(=O)N(c3ccc(Cl)cc3)C(C)C)c2=O)c1Cl", "note": "[Compound 684]", "values": [{"measurement": "Bedstraw plant response rating", "setting": "bedstraw; [1]", "value": 0}, {"measurement": "Plant response rating, Bedstraw", "setting": "bedstraw; [2]", "value": 0}, {"measurement": "Plant response rating, Bedstraw", "setting": "bedstraw; [3]", "value": 0}, {"measurement": "Plant response rating, Bedstraw", "setting": "bedstraw; [4]", "value": 0}, {"measurement": "Blackgrass plant response rating", "setting": "blackgrass; [1]", "value": 1}, {"measurement": "Plant response rating, Blackgrass", "setting": "blackgrass; [2]", "value": 3}, {"measurement": "Plant response rating, Blackgrass", "setting": "blackgrass; [3]", "value": 4}, {"measurement": "Plant response rating, Blackgrass", "setting": "blackgrass; [4]", "value": 7}, {"measurement": "B. signalgrass plant response rating", "setting": "surinam grass; [1]", "value": 0}, {"measurement": "Plant response rating, B. signalgrass", "setting": "surinam grass; [2]", "value": 0}, {"measurement": "Plant response rating, B. signalgrass", "setting": "surinam grass; [3]", "value": 4}, {"measurement": "Plant response rating, B. signalgrass", "setting": "surinam grass; [4]", "value": 5}, {"measurement": "Cocklebur plant response rating", "setting": "cocklebur; [1]", "value": 0}, {"measurement": "Plant response rating, Cocklebur", "setting": "cocklebur; [2]", "value": 0}, {"measurement": "Plant response rating, Cocklebur", "setting": "cocklebur; [3]", "value": 0}, {"measurement": "Plant response rating, Cocklebur", "setting": "cocklebur; [4]", "value": 0}, {"measurement": "Corn plant response rating", "setting": "corn; [1]", "value": 0}, {"measurement": "Plant response rating, Corn", "setting": "corn; [2]", "value": 0}, {"measurement": "Plant response rating, Corn", "setting": "corn; [3]", "value": 0}, {"measurement": "Crabgrass plant response rating", "setting": "crabgrass; [1]", "value": 3}, {"measurement": "Plant response rating, Crabgrass", "setting": "crabgrass; [2]", "value": 7}, {"measurement": "Plant response rating, Crabgrass", "setting": "crabgrass; [3]", "value": 9}, {"measurement": "Giant foxtail plant response rating", "setting": "giant foxtail", "value": 7}, {"measurement": "Plant response rating, Giant foxtail", "setting": "giant foxtail", "value": 9}, {"measurement": "Morningglory plant response rating", "setting": "morningglory", "value": 0}, {"measurement": "Plant response rating, Morningglory", "setting": "morningglory", "value": 0}, {"measurement": "Redroot pigweed plant response rating", "setting": "pigweed", "value": 0}, {"measurement": "Plant response rating, Redroot pigweed", "setting": "pigweed", "value": 0}, {"measurement": "Rape plant response rating", "setting": "rape", "value": 0}, {"measurement": "Plant response rating, Rape", "setting": "rape", "value": 0}, {"measurement": "Soybean plant response rating", "setting": "soybean", "value": 0}, {"measurement": "Plant response rating, Soybean", "setting": "soybean", "value": 0}, {"measurement": "Sugarbeets plant response rating", "setting": "sugar beet", "value": 0}, {"measurement": "Plant response rating, Sugarbeets", "setting": "sugar beet", "value": 0}, {"measurement": "Velvetleaf plant response rating", "setting": "velvetleaf", "value": 0}, {"measurement": "Plant response rating, Velvetleaf", "setting": "velvetleaf", "value": 0}, {"measurement": "Wheat plant response rating", "setting": "wheat", "value": 0}, {"measurement": "Plant response rating, Wheat", "setting": "wheat", "value": 0}, {"measurement": "Wild oats plant response rating", "setting": "wild oat", "value": 0}, {"measurement": "Plant response rating, Wild oats", "setting": "wild oat", "value": 0}, {"measurement": "Nutsedge plant response rating", "setting": "purple nutsedge", "value": 0}, {"measurement": "Plant response rating, Nutsedge", "setting": "purple nutsedge", "value": 0}]}
